Patent US20240270751A1, “Pyrazolopyridinone Compounds” (BeiGene Ltd., priority 2021, published 2024)
pIC50: −log10 of the molar value.

Tests used:
[1] = molecular target: DGKζ (Homo sapiens (Human), UniProt Q13574); assay: Biochemical DGK IC50 assay, DGKζ ADP-Glo assay; conditions: 0.5 nM enzyme, 140 μM ATP, 80 μM DAG; read-out: DGKζ ADP-Glo assay IC50
Method: (§1) Enzymatic reactions of DGKζ, DGKα and DGKδ were performed using ADP-Glo assay with lipid micelle substrate. […] Full length DGKα (D21-10BG, SignalChem) and full length DGKδ (D23-10G, SignalChem) were purchased. Lipid micelle was prepared by dissolving DAG (Sigma, 317505-10MG) and PS (Sigma, P7769-100MG) with chloroform which was furtherly removed by rotary evaporation. The resulted product was resuspended in buffer containing 25 mM HEPES pH 7.0, 0.5 mM EDTA and 160 mM Octyl β-D glucopyranoside by vigorous mixing and ultrasonic (IID, Scientz).
(§2) The ranges of compounds final concentration were 1.55˜10000 nM or 23.3˜150000 nM. 3 μL 2× enzyme solution was added to wells.
Human His-TEV-DGK-zeta-pFastBac1 and human baculovirus samples was generated using the Bac-to-Bac baculovirus expression system (Invitrogen) according to the manufacturer's protocol. The DNA used for expression of DGK-zeta, have SEQ ID Nos: 1. Baculovirus amplification was achieved using infected SF9 cells at 1:2000 virus/cells ratios, and grown for 96 hours at 27° C. post-transfected.
The expression scaled up for each protein was carried out in the […] from CORNING. 4 L of 3×10^6 cells/mL Sf9 cells (Expression System, Invitrogen) grown in SF900™ II SFM insect medium (Expression System) was infected with virus stock at 1:200 virus/cells ratio, and grown for 48 hours at 27° C. post-transfection. The infected cell culture was harvested by centrifugation at 6000 rpm for 15 min 4° C. in a SORVALL LYNX6000 centrifuge. The cell pellets were stored at −80° C.
Full length human DGKζ produced as described above, was purified from Sf9 baculovirus-infected insect cell paste. The cells were lysed using sonication method, and the lysates were clarified by centrifugation.

[2] = molecular target: DGKα (Homo sapiens (Human), UniProt P23743); assay: Biochemical DGK IC50 assay, DGKα ADP-Glo assay; conditions: 7.5 nM enzyme, 140 μM ATP, 80 μM DAG
Method: as §1, §2

Chain of DGKζ (Q13574 other isoform, or with tags, fused parts or gaps): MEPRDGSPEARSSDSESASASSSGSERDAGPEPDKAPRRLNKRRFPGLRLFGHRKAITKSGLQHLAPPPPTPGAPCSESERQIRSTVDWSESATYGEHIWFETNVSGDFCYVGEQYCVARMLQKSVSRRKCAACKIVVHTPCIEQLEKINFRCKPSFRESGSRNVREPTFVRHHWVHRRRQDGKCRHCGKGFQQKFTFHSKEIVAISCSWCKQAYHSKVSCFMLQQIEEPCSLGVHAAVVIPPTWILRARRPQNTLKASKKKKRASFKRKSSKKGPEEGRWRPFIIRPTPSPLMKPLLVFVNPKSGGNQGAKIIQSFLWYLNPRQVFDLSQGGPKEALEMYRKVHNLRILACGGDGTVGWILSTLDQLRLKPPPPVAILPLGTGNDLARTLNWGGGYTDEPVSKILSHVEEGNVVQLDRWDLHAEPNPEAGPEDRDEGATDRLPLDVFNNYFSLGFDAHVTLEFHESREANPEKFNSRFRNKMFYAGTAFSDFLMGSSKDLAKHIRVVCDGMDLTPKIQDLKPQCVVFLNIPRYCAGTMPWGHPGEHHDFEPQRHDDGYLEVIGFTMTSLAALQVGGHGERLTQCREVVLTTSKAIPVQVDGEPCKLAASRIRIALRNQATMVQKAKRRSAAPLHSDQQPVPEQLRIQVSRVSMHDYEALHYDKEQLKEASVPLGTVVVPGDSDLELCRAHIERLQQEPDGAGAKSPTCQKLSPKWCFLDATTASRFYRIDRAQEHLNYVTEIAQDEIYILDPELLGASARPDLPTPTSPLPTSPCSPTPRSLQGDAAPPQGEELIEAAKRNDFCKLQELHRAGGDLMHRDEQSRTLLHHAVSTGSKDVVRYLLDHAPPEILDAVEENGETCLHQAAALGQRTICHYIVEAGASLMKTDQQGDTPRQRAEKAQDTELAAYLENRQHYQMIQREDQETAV
Chain of DGKα (P23743 whole entry): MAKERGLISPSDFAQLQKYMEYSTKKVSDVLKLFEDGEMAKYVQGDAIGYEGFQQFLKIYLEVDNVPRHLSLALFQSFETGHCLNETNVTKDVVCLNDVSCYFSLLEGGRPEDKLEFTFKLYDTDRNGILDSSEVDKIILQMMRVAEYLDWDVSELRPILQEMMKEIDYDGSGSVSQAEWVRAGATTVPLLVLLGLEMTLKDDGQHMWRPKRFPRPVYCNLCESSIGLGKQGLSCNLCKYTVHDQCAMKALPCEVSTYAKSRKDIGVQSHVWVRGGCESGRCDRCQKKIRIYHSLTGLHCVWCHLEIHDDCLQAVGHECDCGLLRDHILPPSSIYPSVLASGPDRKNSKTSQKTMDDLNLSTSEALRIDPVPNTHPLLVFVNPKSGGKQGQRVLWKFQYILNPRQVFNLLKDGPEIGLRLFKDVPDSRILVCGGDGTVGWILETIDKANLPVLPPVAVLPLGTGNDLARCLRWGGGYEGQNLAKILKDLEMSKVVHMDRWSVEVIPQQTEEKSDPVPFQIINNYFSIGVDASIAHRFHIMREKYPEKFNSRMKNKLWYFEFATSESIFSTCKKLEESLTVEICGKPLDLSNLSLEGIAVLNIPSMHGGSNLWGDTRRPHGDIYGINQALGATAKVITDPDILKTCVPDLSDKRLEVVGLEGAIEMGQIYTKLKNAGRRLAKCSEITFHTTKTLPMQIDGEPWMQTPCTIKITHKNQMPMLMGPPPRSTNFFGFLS

| SMILES | pIC50 [1] | pIC50 [2] |
| --- | --- | --- |
| Cc1cc2cc(C(C)N3C[C@H](C)N(c4cc(=O)n(C)c5cn(CC#N)nc45)C[C@H]3C)ccc2cn1 (mixture of isomers) [Compound A304, 2-(7-((2S,5R)-2,5-dimethyl-4-(1-(3-methylisoquinolin-6-yl)ethyl)piperazin-1-yl)-4-methyl-5-oxo-4,5-dihydro-2H-pyrazolo[4,3-b]pyridin-2-yl)acetonitrile] | 6.12 | 5.44 |
| Cc1nc2ccc(C(C)N3C[C@H](C)N(c4cc(=O)n(C)c5cn(CC#N)nc45)C[C@H]3C)cn2n1 (mixture of isomers) [Compound A321] | – | < 3.82 |
| CC(c1ccc2nccnc2c1)N1C[C@H](C)N(c2cc(=O)n(C)c3cn(CC#N)nc23)C[C@H]1C (mixture of isomers) [Compound A2, 2-(7-((2S,5R)-2,5-dimethyl-4-(1-(quinoxalin-6-yl)ethyl)piperazin-1-yl)-4-methyl-5-oxo-4,5-dihydro-2H-pyrazolo[4,3-b]pyridin-2-yl)acetonitrile] | 7.15 | 5.11 |
| COCc1cc(F)ccc1C(C)N1C[C@H](C)N(c2cc(=O)n(C)c3cn(CC#N)nc23)C[C@H]1C (single isomer, unassigned) [Compound A29b] | 7.24 | 5.39 |
| CC(c1ccc2c(c1)OCCO2)N1C[C@H](C)N(c2cc(=O)n(C)c3cn(CC#N)nc23)C[C@H]1C (single isomer, unassigned) [Compound A43a] | 5.29 | 4.42 |
| CC(c1ccc2c(c1)OCCO2)N1C[C@H](C)N(c2cc(=O)n(C)c3cn(CC#N)nc23)C[C@H]1C (single isomer, unassigned) [Compound A43b] | 7.30 | 5.18 |
| CC(c1ccc2c(c1)OC(C)(C)CO2)N1C[C@H](C)N(c2cc(=O)n(C)c3cn(CC#N)nc23)C[C@H]1C (single isomer, unassigned) [Compound A46f] | 5.67 | 4.22 |
| CC[C@H]1CN(C(C)c2ccc(C(F)(F)F)cc2F)[C@H](CC)CN1c1cc(=O)n(C)c2cn(CC#N)nc12 (single isomer, unassigned) [Compound A69b] | 5.31 | 5.52 |
| CC[C@H]1CN(C(C)c2ccc(F)cc2OC)[C@H](CC)CN1c1cc(=O)n(C)c2cn(CC#N)nc12 (single isomer, unassigned) [Compound A71a] | 5.68 | 4.38 |
| CC[C@H]1CN(C(C)c2ccc(F)cc2OC)[C@H](CC)CN1c1cc(=O)n(C)c2cn(CC#N)nc12 (single isomer, unassigned) [Compound A71b] | 6.89 | 4.40 |
| CC[C@H]1CN([C@H](C)c2ncccc2OC)[C@H](CC)CN1c1cc(=O)n(C)c2cn(CC#N)nc12 (single isomer, unassigned) [Compound A92b] | – | < 5.00 |
| CC[C@@H]1CN(c2cc(=O)n(C)c3cn(CC#N)nc23)[C@@H](C)CN1C(C)c1ccc2nccnc2c1 (single isomer, unassigned) [Compound A97a] | 8.07 | 5.47 |
| CC[C@@H]1CN(c2cc(=O)n(C)c3cn(CC#N)nc23)[C@@H](C)CN1C(C)c1ccc2nccnc2c1 (single isomer, unassigned) [Compound A97b] | 5.79 | 5.29 |
| CC[C@H]1CN(C(C)c2ccc3nccnc3c2)[C@H](C)CN1c1cc(=O)n(C)c2cn(CC#N)nc12 (single isomer, unassigned) [Compound A98b] | 5.75 | < 5.00 |
| CC[C@H]1CN(C(C)c2ccccc2OC)[C@H](CC)CN1c1cc(=O)n(C)c2cn(CC#N)nc12 (single isomer, unassigned) [Compound A106a] | 5.66 | < 5.00 |
| CC[C@H]1CN(C(C)c2ccccc2OC)[C@H](CC)CN1c1cc(=O)n(C)c2cn(CC#N)nc12 (single isomer, unassigned) [Compound A106b] | 6.74 | < 5.00 |
| CC[C@H]1CN(C(C)c2ccc(C)cc2C(F)(F)F)[C@H](CC)CN1c1cc(=O)n(C)c2cn(CC#N)nc12 (single isomer, unassigned) [Compound A115a] | < 5.00 | < 5.00 |
| CC[C@H]1CN(C(C)c2ccc(C)cc2C(F)(F)F)[C@H](CC)CN1c1cc(=O)n(C)c2cn(CC#N)nc12 (single isomer, unassigned) [Compound A115b] | 6.42 | 3.98 |
| CC[C@H]1CN(C(C)c2cnn(CC)c2C(F)(F)F)[C@H](CC)CN1c1cc(=O)n(C)c2cn(CC#N)nc12 (single isomer, unassigned) [Compound A119a] | 7.82 | 5.09 |
| CC[C@H]1CN([C@H](C)c2ccc3nccnc3c2)[C@H](CC)CN1c1cc(=O)n(C(C)C)c2cn(CC#N)nc12 (single isomer, unassigned) [Compound A190b] | – | < 5.00 |
| CC[C@H]1CN([C@H](C)c2nc(Cl)cn2CC)[C@H](CC)CN1c1cc(=O)n(C)c2cn(CC#N)nc12 (single isomer, unassigned) [Compound A191b] | – | < 5.00 |
| COc1cc(F)ccc1C(C)N1C[C@H](C)N(c2cc(=O)n(C)c3cn(CC#N)nc23)C[C@H]1C (stereo partly drawn) [Compound A248, 2-(7-((2S,5R)-4-(1-(2-omethoxy-4-fluorophenyl)ethyl)-2,5-dimethylpiperazin-1-yl)-4-methyl-5-oxo-4,5-dihydro-2H-pyrazolo[4,3-b]pyridin-2-yl)acetonitrile] | – | < 5.00 |

The next compounds have a higher pIC50 [2] than those just listed; values first:

| pIC50 [1] | pIC50 [2] | SMILES |
| --- | --- | --- |
| 8.17 | 6.51 | CC[C@H]1CN(C(C)c2ccc3nccnc3c2)[C@H](CC)CN1c1cc(=O)n(C)c2cn(CC#N)nc12 (mixture of isomers) [Compound A28, 2-(7-((2S,5R)-2,5-diethyl-4-(1-(quinoxalin-6-yl)ethyl)piperazin-1-yl)-4-methyl-5-oxo-4,5-dihydro-2H-pyrazolo[4,3-b]pyridin-2-yl)acetonitrile] |
| 7.03 | 6.70 | CC#CCn1cc2c(n1)c(N1C[C@@H](C)N(C(C)c3ccc4nccnc4c3)C[C@@H]1C)cc(=O)n2C (mixture of isomers) [Compound A22, 2-(but-2-yn-1-yl)-7-((2S,5R)-2,5-dimethyl-4-(1-(quinoxalin-6-yl)ethyl)piperazin-1-yl)-4-methyl-2,4-dihydro-5H-pyrazolo[4,3-b]pyridin-5-one] |
| 9.00 | 6.00 | CC[C@@H]1CN(c2cc(=O)n(C)c3cn(CC#N)nc23)[C@@H](C)CN1C(C)c1ccc2nccnc2c1 (mixture of isomers) [Compound A97, 2-(7-((2S,5R)-5-ethyl-2-methyl-4-(1-(quinoxalin-6-yl)ethyl)piperazin-1-yl)-4-methyl-5-oxo-4,5-dihydro-2H-pyrazolo[4,3-b]pyridin-2-yl)acetonitrile] |
| 6.97 | 6.68 | CC[C@H]1CN(C(C)c2ccc(C(F)(F)F)cc2)[C@H](CC)CN1c1cc(=O)n(C)c2cn(CC#N)nc12 (mixture of isomers) [Compound A103, 2-(7-((2S,5R)-2,5-diethyl-4-(1-(4-(trifluoromethyl)phenyl)ethyl)piperazin-1-yl)-4-methyl-5-oxo-4,5-dihydro-2H-pyrazolo[4,3-b]pyridin-2-yl)acetonitrile] |
| 8.12 | 6.31 | CC[C@H]1CN(C(C)c2ccc3nccnc3c2)[C@H](CC)CN1c1cc(=O)n(C)c2cn(CC#N)nc12 (single isomer, unassigned) [Compound A28a] |
| 6.33 | 6.01 | CC[C@H]1CN(C(C)c2ccc3nccnc3c2)[C@H](CC)CN1c1cc(=O)n(C)c2cn(CC#N)nc12 (single isomer, unassigned) [Compound A28b] |
| 7.60 | 6.89 | CC[C@H]1CN(C(C)c2ccc(C(F)(F)F)cc2F)[C@H](CC)CN1c1cc(=O)n(C)c2cn(CC#N)nc12 (single isomer, unassigned) [Compound A69a] |
| 6.65 | 8.66 | CC[C@H]1CN(C(C)c2ccc(F)cn2)[C@H](CC)CN1c1cc(=O)n(C)c2cn(CC#N)nc12 (single isomer, unassigned) [Compound A74a] |
| 5.26 | 6.73 | CC[C@H]1CN(C(C)c2ccc(F)cn2)[C@H](CC)CN1c1cc(=O)n(C)c2cn(CC#N)nc12 (single isomer, unassigned) [Compound A74b] |
| 7.82 | 5.97 | CC[C@H]1CN(C(C)c2ccc3nccnc3c2)[C@H](C)CN1c1cc(=O)n(C)c2cn(CC#N)nc12 (single isomer, unassigned) [Compound A98a] |
| 6.62 | 6.39 | CC[C@H]1CN(C(C)c2ccc(C(F)(F)F)cc2)[C@H](CC)CN1c1cc(=O)n(C)c2cn(CC#N)nc12 (single isomer, unassigned) [Compound A103a] |
| 5.57 | 6.09 | CC[C@H]1CN(C(C)c2ccc(C(F)(F)F)cc2)[C@H](CC)CN1c1cc(=O)n(C)c2cn(CC#N)nc12 (single isomer, unassigned) [Compound A103b] |
